Article PMC9090415, “Discovery of small molecule inhibitors of Plasmodium falciparum apicoplast DNA polymerase” (Journal of Enzyme Inhibition and Medicinal Chemistry, 2022)

Molecular target: T1, bacteriophage T4 DNA polymerase (Enterobacteria phage T4, UniProt P04415)
T1 construct: made in house
T1 sequence (P04415 1-898): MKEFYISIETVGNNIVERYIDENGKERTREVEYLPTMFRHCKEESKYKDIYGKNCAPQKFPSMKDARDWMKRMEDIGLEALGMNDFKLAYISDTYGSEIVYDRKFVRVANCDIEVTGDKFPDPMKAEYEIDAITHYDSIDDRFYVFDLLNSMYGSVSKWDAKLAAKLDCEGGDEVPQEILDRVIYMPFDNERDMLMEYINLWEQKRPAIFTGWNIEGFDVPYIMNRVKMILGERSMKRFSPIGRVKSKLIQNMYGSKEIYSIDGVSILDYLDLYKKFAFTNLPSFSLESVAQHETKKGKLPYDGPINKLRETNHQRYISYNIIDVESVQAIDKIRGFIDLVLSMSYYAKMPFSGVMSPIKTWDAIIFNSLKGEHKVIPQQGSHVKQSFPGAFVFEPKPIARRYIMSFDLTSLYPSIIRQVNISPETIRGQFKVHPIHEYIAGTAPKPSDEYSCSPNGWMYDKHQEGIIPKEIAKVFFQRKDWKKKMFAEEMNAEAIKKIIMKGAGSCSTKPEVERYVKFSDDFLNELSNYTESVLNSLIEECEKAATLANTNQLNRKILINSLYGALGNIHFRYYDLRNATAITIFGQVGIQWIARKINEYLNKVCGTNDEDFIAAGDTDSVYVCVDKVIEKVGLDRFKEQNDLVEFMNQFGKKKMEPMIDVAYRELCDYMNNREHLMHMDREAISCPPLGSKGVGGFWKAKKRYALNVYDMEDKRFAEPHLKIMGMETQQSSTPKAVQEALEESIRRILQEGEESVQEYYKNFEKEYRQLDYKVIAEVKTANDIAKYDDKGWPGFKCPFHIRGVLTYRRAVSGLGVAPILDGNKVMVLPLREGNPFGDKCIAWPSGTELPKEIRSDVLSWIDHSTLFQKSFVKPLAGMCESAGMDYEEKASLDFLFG
Test: Counter-screen against bacteriophage T4 DNA polymerase
Format: biochemical
Details: for % inhibition T4 10' 2.5 / % inhibition T4 10' 5 / % inhibition T4 10' 10 / % inhibition T4 10' 20 / % inhibition T4 10' 40 / % inhibition T4 10' 80: read at 10'
Procedure, shortened: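 Purified T4 DNA polymerase, a B-family enzyme, served as the counter-screen enzyme. Compounds were tested in dose-response format and IC50 values were derived.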

Compound: COc1ccccc1CC(=O)N1CCc2c(nc3cc(-c4ccccc4Cl)[nH]n3c2=O)C1 [Molecule 49, COc1ccccc1CC(=O)N1CCc2c(C1)nc1n(c2=O)[nH]c(c1)c1ccccc1Cl]
- % inhibition T4 10' 2.5 (DRC-1, concentration 2.5): -1.17%
- % inhibition T4 10' 5 (DRC-1, concentration 5): -4%
- % inhibition T4 10' 10 (DRC-1, concentration 10): -5.62%
- % inhibition T4 10' 20 (DRC-1, concentration 20): -14%
- % inhibition T4 10' 40 (DRC-1, concentration 40): -19%
- % inhibition T4 10' 80 (DRC-1, concentration 80): -3%
- % inhibition T4 70' 2.5 (DRC-1, read at 70', concentration 2.5): -2.29%
- % inhibition T4 70' 5 (DRC-1, read at 70', concentration 5): -6%
- % inhibition T4 70' 10 (DRC-1, read at 70', concentration 10): -6%
- % inhibition T4 70' 20 (DRC-1, read at 70', concentration 20): -13%
- % inhibition T4 70' 40 (DRC-1, read at 70', concentration 40): -18%
- % inhibition T4 70' 80 (DRC-1, read at 70', concentration 80): -7%
- % inhibition T4 130' 2.5 (DRC-1, read at 130', concentration 2.5): -4%
- % inhibition T4 130' 5 (DRC-1, read at 130', concentration 5): -6%
- % inhibition T4 130' 10 (DRC-1, read at 130', concentration 10): -5%
- % inhibition T4 130' 20 (DRC-1, read at 130', concentration 20): -12%
- % inhibition T4 130' 40 (DRC-1, read at 130', concentration 40): -13%
- % inhibition T4 130' 80 (DRC-1, read at 130', concentration 80): -11%
- % inhibition T4 10' 2.5 (DRC-2, concentration 2.5): -1%
- % inhibition T4 10' 5 (DRC-2, concentration 5): -28%
- % inhibition T4 10' 10 (DRC-2, concentration 10): -40%
- % inhibition T4 10' 20 (DRC-2, concentration 20): -50%
- % inhibition T4 10' 40 (DRC-2, concentration 40): -55%
- % inhibition T4 10' 80 (DRC-2, concentration 80): -54%
- % inhibition T4 40' 2.5 (DRC-2, read at 40', concentration 2.5): -2.7%
- % inhibition T4 40' 5 (DRC-2, read at 40', concentration 5): -24%
- % inhibition T4 40' 10 (DRC-2, read at 40', concentration 10): -34%
- % inhibition T4 40' 20 (DRC-2, read at 40', concentration 20): -45%
- % inhibition T4 40' 40 (DRC-2, read at 40', concentration 40): -51%
- % inhibition T4 40' 80 (DRC-2, read at 40', concentration 80): -47%
- % inhibition T4 90' 2.5 (DRC-2, read at 90', concentration 2.5): -4%
- % inhibition T4 90' 5 (DRC-2, read at 90', concentration 5): -22%
- % inhibition T4 90' 10 (DRC-2, read at 90', concentration 10): -31%
- % inhibition T4 90' 20 (DRC-2, read at 90', concentration 20): -41%
- % inhibition T4 90' 40 (DRC-2, read at 90', concentration 40): -49%
- % inhibition T4 90' 80 (DRC-2, read at 90', concentration 80): -47%
- % inhibition T4 180' 2.5 (DRC-2, read at 180', concentration 2.5): -9%
- % inhibition T4 180' 5 (DRC-2, read at 180', concentration 5): -24%
- % inhibition T4 180' 10 (DRC-2, read at 180', concentration 10): -28%
- % inhibition T4 180' 20 (DRC-2, read at 180', concentration 20): -39%
- % inhibition T4 180' 40 (DRC-2, read at 180', concentration 40): -47%
- % inhibition T4 180' 80 (DRC-2, read at 180', concentration 80): -46%

Compound: COc1cccc(Oc2c(C(F)(F)F)oc3cc(OC(=O)N(C)C)ccc3c2=O)c1 [Molecule 52, COc1cccc(c1)Oc1c(=O)c2ccc(cc2oc1C(F)(F)F)OC(=O)N(C)C]
- % inhibition T4 10' (DRC-2, concentration 20): 10%
- % inhibition T4 10' (DRC-2, concentration 40): 17%
- % inhibition T4 40' (DRC-2, concentration 10): 7%
- % inhibition T4 40' (DRC-2, concentration 20): 10%
- % inhibition T4 90' (DRC-2, concentration 5): 3%
- % inhibition T4 90' (DRC-2, concentration 10): 7%
- % inhibition T4 180' (DRC-2, concentration 20): 3%
- % inhibition T4 180' (DRC-2, concentration 80): 17%

Compound: Cc1ccc(C)n1-c1ccc(C(=O)NNC(=O)c2ccc3nccnc3c2)cc1 [Molecule 53, O=C(c1ccc(cc1)n1c(C)ccc1C)NNC(=O)c1ccc2c(c1)nccn2]
- % inhibition T4 10' (DRC-2, concentration 2.5): 15%
- % inhibition T4 10' (DRC-2, concentration 5): 24%
- % inhibition T4 10' (DRC-2, concentration 10): 29%
- % inhibition T4 10' (DRC-2, concentration 20): 31%
- % inhibition T4 10' (DRC-2, concentration 40): 29%
- % inhibition T4 10' (DRC-2, concentration 80): 38%
- % inhibition T4 40' (DRC-2, concentration 2.5): 15%
- % inhibition T4 40' (DRC-2, concentration 5): 24%
- % inhibition T4 40' (DRC-2, concentration 10): 29%
- % inhibition T4 40' (DRC-2, concentration 20): 31%
- % inhibition T4 40' (DRC-2, concentration 40): 29%
- % inhibition T4 40' (DRC-2, concentration 80): 38%
- % inhibition T4 90' (DRC-2, concentration 5): 22%
- % inhibition T4 90' (DRC-2, concentration 20): 29%
- % inhibition T4 90' (DRC-2, concentration 40): 29%
- % inhibition T4 180' (DRC-2, concentration 10): 22%
- % inhibition T4 180' (DRC-2, concentration 20): 24%
